We go through eleven compounds from patent US10239894B2, “Inhibitors of indoleamine 2,3-dioxygenase” (GLAXOSMITHKLINE INTELLECTUAL PROPERTY DEVELOPMENT LIMITED, priority 2015, dated 2019).

Molecules are shown by their SMILES.

Data set [1] has as its target T1, indoleamine 2, 3-dioxygenase (IDO1) in IFN-γ stimulated HeLa cells (Homo sapiens, UniProt P14902).
T1 construct: host or cells: HeLa cells stimulated with IFN-γ
The data set is described as follows: HeLa IDOi assay (kynurenine by mass spectrometry). In kind it is cell-based. Particulars: HeLa cells stimulated with IFN-γ, 2 days, kynurenine by MS; read-out: pXC50 HeLa (converted).

Data set [2] addresses T2, indoleamine 2, 3-dioxygenase (IDO1) in IFN-γ/LPS stimulated human peripheral blood mononuclear cells (PBMC) (Homo sapiens, UniProt P14902).
T2 construct: host or cells: human PBMC stimulated with IFN-γ and LPS
The data set is described as follows: PBMC IDOi assay (kynurenine by mass spectrometry). Particulars: human PBMC stimulated with IFN-γ and LPS, 2 days, kynurenine by MS; read-out: pXC50 PBMC (converted). The data set is classed as cell-based.

Data set [3] can be described thus: In vivo pharmacokinetics, rat clearance. Conditions: plasma, intravenous, male nonfasted Wistar Han rats, doses 1 mg/kg i.v. and 5 mg/kg p.o. How it is done: In vivo pharmacokinetic methods, rat: Male nonfasted Wistar Han rats (n=3) received test article at doses of 1 mg/kg i.v. (1 mL/kg) and 5 mg/kg p.o. (5 ml/kg) formulated in a DMSO/solutol/10% hydroxyl-propyl β cyclodextrin (10:10:80) dosing vehicle. For all animals,food and water was provided ad libitum. Blood samples were withdrawn from a surgically-implanted venous cannula at timed intervals for 24 h after dose administration, treated with EDTA, and centrifuged to harvest plasma for LC/MS/MS analysis. Plasma concentration-time data for individual rats were analyzed by noncompartmental analysis using the Phoenix™ WinNonlin® (version 6.2.1, Pharsight Corp., St. Louis, Mo.) software to generate pharmacokinetic parameter estimates.

A short description of data set [4]: In vivo pharmacokinetics, mouse clearance.
A further data set deals with T3, Recombinant human IDO1 (Homo sapiens, UniProt P14902).
T3 construct: made in house; host or cells: E. coli
The data set is described as follows: IDOi enzyme assay (absorbance readout of NFK formation at 320 nm). The data set is classed as biochemical. Conditions: recombinant human IDO1, 2 mM D-tryptophan, 30 min preincubation; read-out: pXC50 enzyme (converted).

In data set [5] the target is T4, indoleamine 2, 3-dioxygenase (IDO1) in IFN-γ/LPS stimulated human monocyte-derived dendritic cells (MDDC) (Homo sapiens, UniProt P14902).
T4 construct: host or cells: human monocyte-derived dendritic cells stimulated with IFN-γ and LPS
The data set is described as follows: IDOi MDDC assay (kynurenine by mass spectrometry). In kind it is cell-based. Particulars: human MDDC stimulated with IFN-γ and LPS, 2 days, kynurenine by MS; read-out: pXC50 MDDC (converted).

T1 sequence (P14902 whole entry): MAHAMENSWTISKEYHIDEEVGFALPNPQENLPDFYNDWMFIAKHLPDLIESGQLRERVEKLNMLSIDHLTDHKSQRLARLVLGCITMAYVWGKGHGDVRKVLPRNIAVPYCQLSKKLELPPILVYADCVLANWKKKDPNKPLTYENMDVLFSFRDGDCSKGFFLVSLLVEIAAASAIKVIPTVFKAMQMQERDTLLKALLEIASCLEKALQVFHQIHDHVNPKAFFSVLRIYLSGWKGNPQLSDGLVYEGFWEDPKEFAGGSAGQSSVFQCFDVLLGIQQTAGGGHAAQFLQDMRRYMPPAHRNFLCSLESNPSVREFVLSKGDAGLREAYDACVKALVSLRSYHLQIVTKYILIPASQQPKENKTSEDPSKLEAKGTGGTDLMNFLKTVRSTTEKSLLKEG
T4 sequence (P14902 whole entry): as above
T2 sequence (P14902 whole entry): as above
T3 sequence (P14902 whole entry): as above

For the compound `O=C(NCCNc1nonc1C(=NO)Nc1ccc(F)c(Br)c1)c1cccc2c1B(O)OCC2` [Compound 1, N-(2-((4-(N-(3-bromo-4-fluorophenyl)-N′-hydroxycarbamimidoyl)-1,2,5-oxadiazol-3-yl)amino)ethyl)-1-hydroxy-3,4-dihydro-1H-benzo[c][1,2]oxaborinine-8-carboxamide], the IC50 in data set [1] was 100 nM; in data set [2], 126 nM; on Recombinant human IDO1, 100 nM; in data set [5], 158 nM. Besides, the values for the clearance in data set [3] and in data set [4] were 0.8 mL/min/kg and 0.6 mL/min/kg, respectively.
As for `O=C(NCCNc1nonc1C(=NO)Nc1ccc(F)c(Br)c1)c1cccc2c1B(O)OC=C2` [Compound 2, N-(2-((4-(N-(3-Bromo-4-fluorophenyl)-N′-hydroxycarbamimidoyl)-1,2,5-oxadiazol-3-yl)amino)ethyl)-1-hydroxy-1H-benzo[c][1,2]oxaborinine-8-carboxamide], the values for the IC50 (in data set [1]; in data set [2]; at Recombinant human IDO1) were 631 nM, 501 nM and 200 nM, respectively.
For the compound `O=C(NCCNc1nonc1C(=NO)Nc1ccc(F)c(Br)c1)c1ccc2c(c1)B(O)OC=C2` [Compound 3, N-(2-((4-(N-(3-Bromo-4-fluorophenyl)-N′-hydroxycarbamimidoyl)-1,2,5-oxadiazol-3-yl)amino)ethyl)-1-hydroxy-1H-benzo[c][1,2]oxaborinine-7-carboxamide], the IC50 in data set [1] is 1260 nM; in data set [2] it was 316 nM; on Recombinant human IDO1, 79.4 nM; in data set [5] it was 2000 nM. This compound displayed a clearance in data set [3] of 0.8 mL/min/kg.
`O=C(NCCNc1nonc1C(=NO)Nc1ccc(F)c(Br)c1)c1ccc2c(c1)B(O)OCC2` [Compound 4, N-(2-((4-(N-(3-Bromo-4-fluorophenyl)-N′-hydroxycarbamimidoyl)-1,2,5-oxadiazol-3-yl)amino)ethyl)-1-hydroxy-3,4-dihydro-1H-benzo[c][1,2]oxaborinine-7-carboxamide]: the IC50 in data set [1] was 158 nM; in data set [2], 100 nM; at Recombinant human IDO1, 50.1 nM; in data set [5], 1260 nM. Besides, the clearance in data set [3] came out at 2 mL/min/kg.
With `CN(Cc1cccc2c1COB2O)C(=O)CNc1nonc1C(=NO)Nc1ccc(F)c(Br)c1` [Compound 5, 2-((4-(N-(3-Bromo-4-fluorophenyl)-N′-hydroxycarbamimidoyl)-1,2,5-oxadiazol-3-yl)amino)-N-((1-hydroxy-1,3-dihydrobenzo[c][1,2]oxaborol-4-yl)methyl)-N-methylacetamide 2,2,2-trifluoroacetate], the IC50 is 200 nM in data set [1], 158 nM in data set [2], 100 nM at Recombinant human IDO1 and 126 nM in data set [5]. Also, the clearance came out at 2.8 mL/min/kg in data set [3] and 3.1 mL/min/kg in data set [4].
For `O=C(NCCNc1nonc1C(=NO)Nc1ccc(F)c(Br)c1)c1cccc2c1B(O)OC2` [Compound 6, N-(2-((4-(N-(3-Bromo-4-fluorophenyl)-N′-hydroxycarbamimidoyl)-1,2,5-oxadiazol-3-yl)amino)ethyl)-1-hydroxy-1,3-dihydrobenzo[c][1,2]oxaborole-7-carboxamide], the IC50 is 158 nM in data set [1], 100 nM in data set [2], 79.4 nM on Recombinant human IDO1 and 100 nM in data set [5]. The clearance in data set [3] amounted to 4.8 mL/min/kg; in data set [4] it was 7.1 mL/min/kg.
Take `O=C(CN1CCOB2OCc3cccc1c32)NCCNc1nonc1C(=NO)Nc1ccc(F)c(Br)c1` [Compound 7]: the IC50 was 631 nM in data set [1], 398 nM in data set [2] and 100 nM at Recombinant human IDO1. This compound also registered a clearance in data set [3] of 180 mL/min/kg.
Turning to `O=C(NCCNc1nonc1C(=NO)Nc1ccc(F)c(Br)c1)c1ccc2c(c1)COB2O` [Compound 8], the IC50 was 158 nM in data set [1], 50.1 nM in data set [2], 79.4 nM at Recombinant human IDO1 and 79.4 nM in data set [5]. Further, the clearance in data set [3] was 74.9 mL/min/kg.
As for `O=C(NCCNc1nonc1C(=NO)Nc1ccc(F)c(Br)c1)Nc1ccc(B(O)O)cc1` [Compound 9], the IC50 was 100 nM in data set [1], 31.6 nM in data set [2], 31.6 nM on Recombinant human IDO1 and 63.1 nM in data set [5]. The clearance in data set [3] stood at 238 mL/min/kg.
Take `ON=C(Nc1ccc(F)c(Br)c1)c1nonc1Nc1ccc(B(O)O)cc1` [Compound 10]: the IC50 in data set [1] was 158 nM; in data set [2], 200 nM; at Recombinant human IDO1, 25.1 nM; in data set [5], 631 nM. The compound also had a clearance in data set [3] of 220 mL/min/kg.
Take `NS(=O)(=O)NCCNc1nonc1C(=NO)Nc1ccc(F)c(Br)c1` [Compound 11, reference compound]: the clearance was found to be 50.6 mL/min/kg in data set [3] and 37.2 mL/min/kg in data set [4].
